Measured values from patent publication US8101570B2, “Single branch heparin-binding growth factor analogs” (BioSurface Engineering Technologies, Inc., priority 2005, dated 2012).
Read-outs that look alike come from different tables or passages of the source. Where a SMILES comes first, the peptide text is derived from it. Bridges are numbered along the chain shown (N, C = ends). Roman numbers before positions name the chains, in order. Where no end group is shown, it is not given here. [ ]: non-standard residue; d: D form. Hx = not defined here; Ahx = NCCCCCC(=O)O

Experiments:
human PDGF-R-alpha = target: T1, human PDGF-R-alpha (Homo sapiens, UniProt P16234); assay: Surface plasmon resonance (BIAcore) binding to immobilized soluble PDGF receptor alpha; details: SPR, 1:1 fit; for kon: read-out: Ka (association rate constant); for koff: read-out: Kd (dissociation rate constant)
T1 construct: Soluble PDGF receptor, recombinant chimera of human PDGF-R-alpha; purchased R&D Systems
T1 sequence (P16234 24-528 limits assumed): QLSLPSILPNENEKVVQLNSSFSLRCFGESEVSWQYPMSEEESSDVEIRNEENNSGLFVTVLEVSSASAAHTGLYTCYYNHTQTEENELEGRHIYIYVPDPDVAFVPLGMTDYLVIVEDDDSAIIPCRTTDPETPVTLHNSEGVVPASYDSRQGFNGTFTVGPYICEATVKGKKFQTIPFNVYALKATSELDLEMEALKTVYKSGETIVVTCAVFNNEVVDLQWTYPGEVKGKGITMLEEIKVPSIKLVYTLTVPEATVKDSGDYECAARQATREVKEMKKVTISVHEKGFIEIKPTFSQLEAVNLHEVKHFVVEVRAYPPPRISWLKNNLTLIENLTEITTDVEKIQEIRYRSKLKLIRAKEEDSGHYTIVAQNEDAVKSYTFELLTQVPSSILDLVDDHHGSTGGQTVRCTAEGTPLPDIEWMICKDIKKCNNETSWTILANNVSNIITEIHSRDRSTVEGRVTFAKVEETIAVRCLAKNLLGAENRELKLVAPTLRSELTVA
Protocol: (§1) Surface Plasmon Resonance (SPR) Analysis. Real-time biomolecular interactions were analyzed with a BIAcore 2000 system (Biacore Inc., Piscataway, N.J.). Soluble PDGF receptor, recombinant chimera of human PDGF-R-alpha and PSGF-R-beta (R &D Systems, Minneapolis, Minn.), was immobilized on research grade CM5 chips (Biacore Inc., Piscataway, N.J.). Following activation with EDC/NHS, the receptors were immobilized on activated CM5 chips. To obtain kinetic data, different concentrations of analytes in HBS-EP buffer were injected over the sensor chip at a flow rate of 50 μl/min. Peptide binding was measured in resonance units (RU). At the end of each sample injection (120 s) buffer was passed over the sensor surface to monitor the dissociation phase. Reference responses from blank flow cells were subtracted from receptor-containing flow cells for each analyte injection and the kinetic parameters for each interaction were determined by globally fitting the experimental data to a 1:1 interaction with BIAEVALUATION software (Biacore Inc., Piscataway, N.J.). The association rate constant and the dissociation rate constant (ka and kd, respectively), and the equilibrium dissociation constant (KD) are presented in the Table 3 for the receptors and PBA2-1.
as §1, with “4” for “3”

PDGF R Beta = target: T2, PDGF R Beta (Homo sapiens, UniProt P09619); assay: Surface plasmon resonance (BIAcore) binding to immobilized soluble PDGF receptor beta; details: for kon / koff: SPR, 1:1 fit; for kon: read-out: Ka (association rate constant); for koff: read-out: Kd (dissociation rate constant)
T2 construct: Soluble PDGF receptor, recombinant chimera of human PDGF-R-alpha and PSGF-R-beta; purchased R&D Systems
T2 sequence (P09619 33-532 limits assumed): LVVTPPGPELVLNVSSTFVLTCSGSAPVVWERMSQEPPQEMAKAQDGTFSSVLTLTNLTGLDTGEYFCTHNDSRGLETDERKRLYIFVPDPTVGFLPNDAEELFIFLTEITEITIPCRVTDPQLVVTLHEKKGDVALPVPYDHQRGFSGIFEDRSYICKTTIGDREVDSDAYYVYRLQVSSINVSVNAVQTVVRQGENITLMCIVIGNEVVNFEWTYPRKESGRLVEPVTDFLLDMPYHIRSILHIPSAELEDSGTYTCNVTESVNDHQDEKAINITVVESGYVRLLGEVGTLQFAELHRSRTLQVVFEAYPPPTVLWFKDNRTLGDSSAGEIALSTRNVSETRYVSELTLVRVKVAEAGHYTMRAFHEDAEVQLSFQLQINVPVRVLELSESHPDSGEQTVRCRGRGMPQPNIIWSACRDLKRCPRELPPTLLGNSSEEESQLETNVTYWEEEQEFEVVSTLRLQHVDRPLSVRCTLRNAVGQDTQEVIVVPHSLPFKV
Protocol: as §1
as §1, with “4” for “3”

C2C12 cells [1] = assay: Alkaline phosphatase assay in C2C12 cells in the presence of recombinant BMP-7; assay type: cell-based, mouse; details: serum low medium containing BMP-7, FIG. 8
Protocol: This peptide was evaluated using C2C12 cells and in the presence of recombinant BMP-7 and using alkaline phosphatase production as an endpoint. Alkaline phosphatase assays were performed using mouse the pluripotent cell lines C2C12. Cells were plated in 96-well (1×10^4/well) plates and allowed 24 hours to attach. The medium was then replaced with a serum low medium containing BMP-7 and/or B7A1-6. After several days, cells were rinsed, lysed, and alkaline phosphatase activity measured using p-nitrophenylphosphate as substrate.

Sup-T1 cells = assay: Sup-T1 cell proliferation; assay type: cell-based; details: low serum, 3 days, FIG. 2
Protocol: Cell proliferation. Sup-T1 cells were obtained from the American Type Culture Collection (Manassas, Va.) and were grown in culture. To monitor the effect of SD1-1 on cell proliferation, Sup-T1 cells were seeded at 100,000 cells per well of a 96-well plate and allowed to attach. The medium was changed to one containing low serum plus SD1-1 and the cells incubated for 3 days after which time the relative cell number was determined using a commercially available kit Referring now to FIG. 2, data in the graph below is reported as the average±SD. Commercially-available recombinant human SDF-1 (diamond) was used as a reference and positive control for comparison of proliferation stimulated by […].

C2C12 cells [2] = assay: C2C12 cell migration, trans-well insert assay; assay type: cell-based; details: 8 μm pore membrane coated with collagen, FIG. 3
Protocol: Cell migration. SD1-1 was evaluated for its ability to induce migration of C2C12 cells using a commercially-available cell migration assay. C2C12 cells were seeded on a trans-well insert containing an 8 μm pore size polycarbonate membrane coated with a thin layer of polymerized collagen. The inserts were placed into wells with medium containing SD1-1. Cells that migrated through the membrane were found on the bottom of the insert membrane. These cells were stained, and the stain extracted and detected on a standard microplate reader (560 nm). Referring now to FIG. 3, the results of cell migration in response to the SD1-1 peptide as compared to SDF-1 peptide or control are illustrated. Data is reported as the average±SD.

M-NSF-60 cells = assay: Augmentation of growth of M-NSF-60 cells in the presence of rhGCSF; assay type: cell-based; details: 0.01 ng rhGCSF, FIG. 9
Protocol: This peptide was evaluated for augmentation of growth using M-NSF-60 cells in the presence of 0.01 ng rhGCSF.

## CC[C@H](C)[C@H](NC(=O)[C@H](CCCNC(=N)N)NC(=O)[C@H](CCC(=O)O)NC(=O)[C@H](CC(C)C)NC(=O)[C@H](CCCCN)NC(=O)[C@H](CCCNC(=N)N)NC(=O)[C@H](CCCCN)NC(=O)[C@H](CCCNC(=N)N)NC(=O)CCCCCNC(=O)CCCCCNC(=O)CCCCCNC(=O)[C@H](CCCCNC(=O)[C@H](CCCCN)NC(=O)[C@H](CCCCN)NC(=O)[C@H](CCCNC(=N)N)NC(=O)[C@@H](NC(=O)[C@@H](NC(=O)[C@H](CCC(=O)O)NC(=O)[C@@H](NC(=O)[C@H](CCCCN)NC(=O)[C@H](CCCNC(=N)N)NC(=O)[C@@H](N)C(C)C)[C@@H](C)CC)[C@@H](C)CC)C(C)C)NC(=O)[C@H](CCCCN)NC(=O)[C@H](CCCCN)NC(=O)[C@H](CCCNC(=N)N)NC(=O)[C@@H](NC(=O)[C@@H](NC(=O)[C@H](CCC(=O)O)NC(=O)[C@@H](NC(=O)[C@H](CCCCN)NC(=O)[C@H](CCCNC(=N)N)NC(=O)[C@@H](N)C(C)C)[C@@H](C)CC)[C@@H](C)CC)C(C)C)C(=O)N[C@@H](C)C(=O)N[C@@H](CCCNC(=N)N)C(N)=O [PBA2-1, VRKIEIVRKKK(VRKIEIVRKK)HxHxHxRKRKLERIAR-amide] (I: H-VRKIEIVRKKK[Ahx][Ahx][Ahx]RKRKLERIAR-NH2 / II: H-VRKIEIVRKK; amide I:11-II:C)
Human PDGF-R-alpha; Table 3, PDGF R Alpha
  kon: 198000 M⁻¹ s⁻¹
  koff: 0.00336 s⁻¹
Human PDGF-R-alpha; Table 4, Alpha
  kon: 414000 M⁻¹ s⁻¹
  koff: 0.00965 s⁻¹
PDGF R Beta
  Kd: 20.2 nM
PDGF R Beta; Table 3, PDGF R Beta
  kon: 133000 M⁻¹ s⁻¹
  koff: 0.00296 s⁻¹
PDGF R Beta; Table 4, Beta
  kon: 353000 M⁻¹ s⁻¹
  koff: 0.00714 s⁻¹

## AISVLYFDDSSNVILKKK(AISVLYFDDSSNVILKK)HxHxHxRKRKLERIAR-amide (chain 1 AISVLYFDDSSNVILKKK-{Hx-Hx-Hx-Arg-Lys-Arg-Lys-Leu-Glu-Arg-Ile-Ala-Arg-NH2}; reading uncertain; also: chain 2 C-terminus branched onto side chain of Lys18 of chain 1, bond at chain A 18 to a chain's C-terminus) [Example B7A1-6]
C2C12 cells [1]
  effect on BMP-7 activity (alkaline phosphatase activity): dose-dependant suppression of the activity of BMP-7

## KPVSLSYRAPARFFESHVAK(KPVSLSYRAPARFFESHVA)HxHxHxRKRKLERIAR-amide [SD1-1]
Sup-T1 cells
  cell proliferation (relative cell number): concentration dependent induction of cell proliferation
C2C12 cells [2]
  cell migration: induced cell migration

## SDF-1: Commercially-available recombinant human SDF-1 used as a reference and positive control [reference compound]
Sup-T1 cells
  cell proliferation (relative cell number): concentration dependent induction of cell proliferation
C2C12 cells [2]
  cell migration: induced cell migration

## SFLLKALEQVRKIQYK(SFLLKALEQVRKIQY)HxHxHxRKRKLERIAR-amide (chain 1 SFLLKALEQVRKIQYK-{Hx-Hx-Hx-Arg-Lys-Arg-Lys-Leu-Glu-Arg-Ile-Ala-Arg-NH2}; reading uncertain; also: chain 2 C-terminus branched onto side chain of Lys16 of chain 1, bond at chain A 16 to a chain's C-terminus) [GCSF1]
M-NSF-60 cells
  augmentation of cellular growth: augmented cellular growth
